From article PMC9100651, “Focused Design of Novel Cyclic Peptides Endowed with GABARAP-Inhibiting Activity” (International Journal of Molecular Sciences, 2022)
“And” between values parts separate entries of the source, which are not always exact repeats. Identical values can stand only once. Like-named read-outs stand apart in the source and are kept apart here. Bridge positions count the residues as written; N and C are the ends. Peptide text beside a SMILES is read from it.

Assays:
[1] = biological target: T1, 6-His-tagged recombinant GABARAP (Homo sapiens, UniProt O95166); experiment: Microscale Thermophoresis (MST) binding affinity
T1 construct: purchased Abcam, Cambridge, UK
Description: The binding affinity (Kd) between the target protein (6-His-tagged recombinant GABARAP, produced by Abcam, Cambridge, UK) and peptide ligands (K1, WC8 and WC10, acquired by ProteoGenix, Schiltigheim, France) was measured by MST [22]. Briefly, histidine-tagged GABARAP was labeled by using a His-tag-specific dye for 30 min at room temperature, using either the conventional Monolith His-Tag Labeling Kit RED-tris-NTA (MO-L008) or the newer Monolith His-Tag Labeling Kit RED-tris-NTA 2nd Generation (MO-L018), both purchased from NanoTemper Technologies (GmbH, München, Germany). MST experiments were performed on both a Monolith NT.115 and a Monolith NT.115Pico instrument (NanoTemper Technologies, München, GmbH), in order to further increase the statistical significance of the attained results.
A fixed concentration of the labeled GABARAP protein was mixed with 16 1:1 serial dilutions of K1, WC8, and WC10. The protein and the peptide were incubated for 60–90 min at room temperature. The MST analysis was performed using standard capillaries, with the following experimental settings: an MST power of 40% (to create a temperature gradient) and a different excitation power in relation to the considered system and instrument (see Supplementary Materials for details, Table S1). Kd values were calculated from compound concentration-dependent changes of normalized fluorescence (Fnorm). In all the experiments, both the protein and the peptides were dissolved in PBS-T buffer (phosphate-buffered saline + 0.05% Tween™ 20; NanoTemper Technologies, GmbH) and 2.5% DMSO. The auto-fluorescence of each peptide was evaluated before proceeding to the determination of the Kd. At least two independent experiments were performed to calculate the Kd values. Data were processed using the NanoTemper MO.Affinity Analysis software (version 2.3), and the fitting was performed by using the Kd model. […]
Table S1. Summary table of the Microscale Thermophoresis (MST) experiments performed on both
Monolith NT.115 and Monolith NT.115Pico instruments. At least two independent experiments were
performed to compute the Kd value.
Protein Ligand MST Exc. Temp. [Ligand] Range SNR* Kd (µM)

GABARAP [2] = biological target: T2, GABARAP (Homo sapiens, UniProt O95166); experiment: Surface Plasmon Resonance (SPR), steady-state affinity; assay type: binding
Description: SPR experiments were performed on a BIAcore 8K system (Cytiva, Marlborough, MA, USA). GABARAP was dissolved in 10 mM of sodium acetate (pH 5.5) and amine-coupled to a CM5 sensor chip (GE Healthcare, Chicago, IL, USA). The reference peptide K1 was dissolved in the running buffer (10 mM Hepes, pH 7.4, 150 mM NaCl) at concentrations of 10 μM to 156 nM. Gradient concentrations of K1 were injected at a flow rate of 30 μL/min, contact time 120 s at 25 °C. WC8 and WC10 were both dissolved in the running buffer (Sigma-Aldrich Dulbecco’s PBS, pH 7.4, 0.005% Tween™ and 5% DMSO; Sigma-Aldrich, St. Louis, MO, USA) at concentrations of 100 μM to 6.25 μM and 12.5 μM to 390 nM, respectively. Gradient concentrations of the peptides were then flowed over the chip with a flow rate of 30 μL/min, contact time 120 s at 25 °C. […] Two independent experiments for WC8 and WC10 were performed. The binding kinetics were evaluated using the BIAevaluation software package and applying the 1:1 steady-state affinity model.

GABARAP [3] = biological target: T2, GABARAP; design: method as in PMID 18638487; conditions: SPR; cited from earlier work
[4] = tested on: PC-3 prostate cancer cells; conditions: human, 96 h, 10 µM
Description: (§1) PC-3 prostate cancer cell line was purchased from the American Type Culture Collection (ATCC, Manassas, VA, USA), cultured at 37 °C and 5% CO2 in Ham’s F-12 K (Kaighn’s) basal medium (Gibco Laboratories, Grand Island, NY, USA), supplemented with 10% FBS (Gibco Laboratories) and 1% of 100 U/mL penicillin/streptomycin (Gibco Laboratories).
(§2) PC-3 and PNT2 cell lines were seeded at a density of 1 × 10^4 cells/well in 96-well plates and maintained under standard growth conditions.
(§3) After 96 h, cell viability was assessed by MTS assay according to the manufacturer’s protocol (Cell Titer 96 Aqueous One Solution Cell Proliferation Assay; Promega, Nacka, Sweden) using a 96-well-plate spectrophotometer (Varioskan Flash Multimode Reader; Thermo-Scientific, Waltham, MA, USA) set at λ = 490 nm. The absorbance value of untreated cells was set at 100% (control), and the viability of treated cells was expressed as a percentage of the control. Three independent experiments were performed in triplicate for each condition.

[5] = tested on: PC-3 prostate cancer cells; experiment: MTS cell viability assay on PC-3 cells; conditions: for cell viability: PC-3, highest tested concentration (10 µM), 96 h post-treatment, % of untreated control
Description: as §1, §2, §3

[6] = Solubility and stability in water and PBS buffer
Description: Initially, we verified that the peptides were water soluble and stable in the buffer in which the recombinant GABARAP protein was solved.

GABARAP [7] = biological target: T2, GABARAP; design: method as in PMID 29867141; conditions: cited from earlier work
[8] = Kd (MST), Monolith NT.115Pico, GABARAP 10 nM, 25°C
[9] = Kd on GABARAP, consistent among MST and SPR

T2 sequence (O95166 whole entry): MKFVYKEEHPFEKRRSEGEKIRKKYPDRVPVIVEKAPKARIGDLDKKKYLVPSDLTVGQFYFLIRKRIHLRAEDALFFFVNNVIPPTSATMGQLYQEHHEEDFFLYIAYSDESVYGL
T1 sequence (O95166 whole entry): as above

Row | Compound | Kd ([1]; Monolith NT.115, 25°C, PBS-T, 2.5% DMSO, read-out: Kd (MST)) | Kd ([1]; Monolith NT.115Pico, GABARAP 10 nM, 25°C, read-out: Kd (MST)) | Kd ([1]; consistent among MST and SPR, read-out: Kd on GABARAP) | Kd (GABARAP [2]; BIAcore 8K, steady-state analysis, 25 °C, read-out: Kd (SPR)) | Kd (GABARAP [3]) | cell viability [4] | Kd [1, 8] | Kd [1, 9] | Kd on GABARAP ([1]; consistent among MST and SPR) | efficacy on PC-3 cells compared to Paclitaxel ([5]; PC-3, from 1 to 10 µM, 96 h) | cell viability [5] | Kd (GABARAP [2]) | stability in water and PBS [6] | Kd ([1]; Kd (MST), Monolith NT.115, 25°C, PBS-T, 2.5% DMSO) | Kd (GABARAP [7])
1 | CC(C)C[C@H](NC(=O)[C@H](Cc1c[nH]cn1)NC(=O)[C@H](CCC(=O)O)NC(=O)[C@H](Cc1c[nH]c2ccccc12)NC(=O)[C@@H](NC(=O)[C@H](Cc1ccc(O)cc1)NC(=O)[C@@H](NC(=O)[C@H](C)NC(=O)[C@@H](N)CC(=O)O)[C@@H](C)O)[C@@H](C)O)C(=O)N[C@@H](C)C(=O)N[C@@H](Cc1c[nH]c2ccccc12)C(=O)N1CCC[C@H]1C(=O)O [Peptide K1, DATYTWEHLAWP, reference compound] | 2.6 ± 0.4 µM | 3.5 ± 0.9 µM | ~3 µM | 3 µM | 390 nM and ~390 nM | 27.16% | – | – | – | – | – | – | – | – | –
2 | CC[C@H](C)[C@@H]1NC(=O)[C@@H](NC(=O)[C@H](CCC(=O)O)NC(=O)[C@@H](N)Cc2c[nH]c3ccccc23)CSSC[C@@H](C(=O)O)NC(=O)[C@H](CCC(=O)O)NC(=O)[C@H](CC(=O)O)NC(=O)[C@H](Cc2ccccc2)NC1=O [WC8, WECIFDEC] (H-WECIFDEC-OH; disulfide 3-8; N-terminus assumed) | – | – | – | – | – | – | 20.8 ± 2.7 µM | 22 µM | low micromolar range | high efficacy | 24.06% | 24.8 µM | excellent stability | – | –
3 | CC[C@H](C)[C@@H]1NC(=O)[C@@H](NC(=O)[C@H](CCC(=O)O)NC(=O)[C@H](Cc2c[nH]c3ccccc23)NC(=O)CNC(=O)[C@@H](N)Cc2c[nH]c3ccccc23)CSSC[C@@H](C(=O)O)NC(=O)[C@H](CCC(=O)O)NC(=O)[C@H](CC(=O)O)NC(=O)[C@H](Cc2ccccc2)NC1=O [WC10, WGWECIFDEC] (H-WGWECIFDEC-OH; disulfide 5-10; N-terminus and C-terminus assumed) | – | – | – | – | – | – | 3.8 ± 1.5 µM | ~4 µM | low micromolar range | – | 22.5% | 4.9 µM | excellent stability | 4.2 ± 1.8 µM | –
4 | EEWVIVSDEEIEEARQKA [AnkB-LIR] | – | – | – | – | – | – | – | – | – | – | – | – | – | – | 0.27 nM
